50 compounds from the PolyMetriX glass transition set can be followed below.

`*C(=O)Nc1ccc(Oc2c(C)cc(C(C)(C)c3cc(C)c(Oc4ccc(NC(=O)c5ccc6c(c5)C(=O)N(c5ccc(Oc7ccc(C8(c9ccc(Oc%10ccc(N%11C(=O)c%12ccc(*)cc%12C%11=O)cc%10)cc9)CC9CC8C8CCCC98)cc7)cc5)C6=O)cc4)c(C)c3)cc2C)cc1` (repeat unit): the glass transition temperature was 276.00 °C.

`*C(=O)Oc1c(C)cc(C(c2cc(C)c(OC(=O)c3ccc4c(c3)C(=O)N(c3c(C)cc(-c5cc(C)c(N6C(=O)c7ccc(*)cc7C6=O)c(C)c5)cc3C)C4=O)c(C)c2)(C(F)(F)F)C(F)(F)F)cc1C` (repeat unit) came in with a glass transition temperature of 327.00 °C.

With `*C(=O)Oc1ccc(C(c2ccc(OC(=O)c3ccc4c(c3)C(=O)N(c3c(C)cc(-c5cc(C)c(N6C(=O)c7ccc(*)cc7C6=O)c(C)c5)cc3C)C4=O)cc2)(C(F)(F)F)C(F)(F)F)cc1` (repeat unit), the glass transition temperature was 335.00 °C.

Turning to `*C(=O)c1ccc(Oc2ccc(Oc3ccc(C(=O)c4ccc5c(c4)C(=O)N(c4ccc(N6C(=O)c7ccc(*)cc7C6=O)cc4)C5=O)cc3)cc2)cc1` (repeat unit), the glass transition temperature is 236.00 °C.

In the case of `*C(=O)c1ccc2c(c1)C(=O)N(c1cc(Oc3c(C)cc(-c4cc(C)c(Oc5cc(N6C(=O)c7ccc(*)cc7C6=O)cc(C(F)(F)F)c5)c(C)c4)cc3C)cc(C(F)(F)F)c1)C2=O` (repeat unit), the glass transition temperature worked out at 265.40 °C.

In turn, `*C(=O)c1ccc2c(c1)C(=O)N(c1ccc(Cc3ccc(Cc4cccc(N5C(=O)c6ccc(*)cc6C5=O)c4)cc3)cc1)C2=O` (repeat unit) gave a glass transition temperature of 317.00 °C.

`*C(=O)c1ccc2c(c1)C(=O)N(c1ccc(Cc3cccc(N4C(=O)c5ccc(*)cc5C4=O)c3)cc1)C2=O` (repeat unit) registered a glass transition temperature of 281.00 °C.

Regarding `*C(=O)c1ccc2c(c1)C(=O)N(c1ccc(Cc3ccccc3N3C(=O)c4ccc(*)cc4C3=O)cc1)C2=O` (repeat unit), the glass transition temperature amounted to 290.00 °C.

For the compound `*CC(F)(F)/C(F)=C(/*)Cl` (repeat unit), the glass transition temperature is -17.00 °C.

Consider `*CC(O)COc1c(C)cc(C(C)(C)c2cc(C)c(OCC(O)COc3c(C)cc(S(=O)(=O)c4cc(C)c(O*)c(C)c4)cc3C)c(C)c2)cc1C` (repeat unit), for which the glass transition temperature was 145.00 °C.

`*CC(O)COc1c(C)cc(C(C)(C)c2cc(C)c(OCC(O)COc3ccc(S(=O)(=O)c4ccc(O*)cc4)cc3)c(C)c2)cc1C` (repeat unit) displayed a glass transition temperature of 145.00 °C.

`*CC(O)COc1ccc(C(C)(C)c2ccc(OCC(O)COc3c(C)cc(C(C)(C)c4cc(C)c(O*)c(C)c4)cc3C)cc2)cc1` (repeat unit): the glass transition temperature was 100.00 °C.

In the case of `*CC(O)COc1ccc(S(=O)(=O)c2ccc(OCC(O)COc3c(C)cc(S(=O)(=O)c4cc(C)c(O*)c(C)c4)cc3C)cc2)cc1` (repeat unit), the glass transition temperature turned out to be 145.00 °C.

In turn, `*CC/C(=C(/*)c1ccccc1)c1ccccc1` (repeat unit) displayed a glass transition temperature of 120.50 °C.

Take `*OC(COC(=O)c1ccc(-c2cc(CCCCCCCC)c(-c3ccc(C(*)=O)c(F)c3F)cc2CCCCCCCC)c(F)c1F)COc1ccc(/N=N/c2ccc(C#N)cc2)cc1` (repeat unit): the glass transition temperature worked out at 61.00 °C.

Compound `*OS(=O)(=O)c1cc(C)c(*)c(C)c1` (repeat unit) came in with a glass transition temperature of 153.00 °C.

Compound `*O[Si](C)(C)CC[Si](C)(C)Oc1c(C)cc(-c2cc(C)c(*)c(C)c2)cc1C` (repeat unit) registered a glass transition temperature of 55.00 °C.

Take `*O[Si](C)(C)O[Si](C)(C)O[Si](C)(C)Oc1c(C)cc(-c2cc(C)c(*)c(C)c2)cc1C` (repeat unit): the glass transition temperature turned out to be 14.00 °C.

Compound `*Oc1c(C)cc(-c2cc(C)c(OC(=O)CCCCCCCCC(*)=O)c(C)c2)cc1C` (repeat unit) had a glass transition temperature of 57.00 °C.

Compound `*Oc1c(C)cc(-c2cc(C)c(Oc3ccc(C(=O)c4ccc(*)cc4)cc3)c(C)c2)cc1C` (repeat unit) registered a glass transition temperature of 246.63 °C.

`*Oc1c(C)cc(C(C)(C)c2cc(C)c(OC(=O)CCCCCCCCC(*)=O)c(C)c2)cc1C` (repeat unit) gave a glass transition temperature of 45.00 °C.

Consider `*Oc1c(C)cc(C(C)(C)c2cc(C)c(OC(=O)c3cccc(C(*)=O)c3)c(C)c2)cc1C` (repeat unit), for which the glass transition temperature worked out at 187.00 °C.

For `*Oc1c(Cl)cc(C(C)(C)c2cc(Cl)c(OC(=O)c3ccc(OCCCCCCCCCCOc4ccc(C(*)=O)cc4)cc3)c(Cl)c2)cc1Cl` (repeat unit), the glass transition temperature is 140.00 °C.

`*Oc1cc(C(C)(C)C)c(Oc2ccc(C(=O)Nc3c(C)cc(C(C)(C)c4cc(C)c(NC(=O)c5ccc(*)cc5)c(C)c4)cc3C)cc2)cc1C(C)(C)C` (repeat unit) had a glass transition temperature of 295.00 °C.

In turn, `*Oc1ccc(S(=O)(=O)c2ccc(Oc3c(C)cc(-c4cc(C)c(*)c(C)c4)cc3C)cc2)cc1` (repeat unit) showed a glass transition temperature of 280.20 °C.

With `*Oc1ccc(S(=O)(=O)c2cccc3c(S(=O)(=O)c4ccc(Oc5c(C)cc(-c6cc(C)c(*)c(C)c6)cc5C)cc4)cccc23)cc1` (repeat unit), the glass transition temperature was 262.00 °C.

Consider `*c1c(C)cc(-c2cc(C)c(N3C(=O)c4ccc(S(=O)(=O)c5ccc6c(c5)C(=O)N(*)C6=O)cc4C3=O)c(C)c2)cc1C` (repeat unit), for which the glass transition temperature came to 290.00 °C.

With `*c1c(C)cc(C(C)(C)c2cc(C)c(S(*)(=O)=O)c(C)c2)cc1C` (repeat unit), the glass transition temperature turned out to be 230.00 °C.

The compound `*c1cc(C)c(*)s1` (repeat unit) yielded a glass transition temperature of 114.20 °C.

In turn, `*c1cc(C)c(Oc2ccc(S(=O)(=O)c3ccc(Oc4cc(C)c(C5(*)OC(=O)c6ccccc65)cc4C)cc3)cc2)cc1C` (repeat unit) returned a glass transition temperature of 269.00 °C.

In turn, `*c1cc(CCCCCCOC(=O)COc2ccccc2)c(*)s1` (repeat unit) registered a glass transition temperature of 50.00 °C.

With `*c1cc(CCOC(=O)C(C)Br)c(*)s1` (repeat unit), the glass transition temperature is 49.00 °C.

Compound `*c1cc(CCOC(=O)NCCCC)c(*)s1` (repeat unit) displayed a glass transition temperature of 67.50 °C.

In turn, `*c1cc(CCOCCOC)c(*)[nH]1` (repeat unit) registered a glass transition temperature of -43.00 °C.

Compound `*c1cc(OCCCC)cc(N2C(=O)c3ccc(Oc4ccc5c(c4)C(=O)N(*)C5=O)cc3C2=O)c1` (repeat unit) had a glass transition temperature of 237.00 °C.

Regarding `*c1cc(OCCCCCCCC)cc(N2C(=O)c3ccc(Oc4ccc5c(c4)C(=O)N(*)C5=O)cc3C2=O)c1` (repeat unit), the glass transition temperature was found to be 185.00 °C.

Regarding `*c1ccc(-c2ccc(N3C(=O)c4ccc(Oc5c(C)cc(C(C)(C)c6cc(C)c(Oc7ccc8c(c7)C(=O)N(*)C8=O)c(C)c6)cc5C)cc4C3=O)cc2C(F)(F)F)c(C(F)(F)F)c1` (repeat unit), the glass transition temperature is 262.00 °C.

Consider `*c1ccc(C(=O)Oc2c(C)cc(C(c3cccnc3)c3cc(C)c(OC(=O)c4ccc(N5C(=O)CC(Nc6ccc(Cc7ccc(NC8CC(=O)N(*)C8=O)cc7)cc6)C5=O)cc4)c(C)c3)cc2C)cc1` (repeat unit), for which the glass transition temperature is 186.00 °C.

For the compound `*c1ccc(C(c2ccc(N3C(=O)c4cc(-c5ccc([Si](C)(C)C)cc5)c(-c5cc6c(cc5-c5ccc([Si](C)(C)C)cc5)C(=O)N(*)C6=O)cc4C3=O)cc2)(C(F)(F)F)C(F)(F)F)cc1` (repeat unit), the glass transition temperature came out at 365.00 °C.

Compound `*c1ccc(Oc2c(C)cc(C(C)(C)c3cc(C)c(Oc4ccc(N5C(=O)c6ccc(Oc7ccc(C8(c9ccc(Oc%10ccc%11c(c%10)C(=O)N(*)C%11=O)cc9)CCC(c9ccccc9)CC8)cc7)cc6C5=O)cc4)c(C)c3)cc2C)cc1` (repeat unit) came in with a glass transition temperature of 232.00 °C.

`*c1ccc(Oc2c(C)cc(C(c3cccnc3)c3cc(C)c(Oc4ccc(N5C(=O)CC(Nc6ccc(Cc7ccc(NC8CC(=O)N(*)C8=O)cc7)cc6)C5=O)cc4)c(C)c3)cc2C)cc1` (repeat unit): the glass transition temperature came out at 201.00 °C.

Compound `*c1ccc(Oc2ccc(-c3ccc(Oc4ccc(N5C(=O)c6cccc(Oc7c(C)cc(-c8cc(C)c(Oc9cccc%10c9C(=O)N(*)C%10=O)c(C)c8)cc7C)c6C5=O)cc4)cc3)cc2)cc1` (repeat unit) registered a glass transition temperature of 290.00 °C.

For `*c1ccc(Oc2ccc(C3(c4ccc(Oc5ccc(N6C(=O)c7ccc(Oc8c(C)cc(C(C)(C)c9cc(C)c(Oc%10ccc%11c(c%10)C(=O)N(*)C%11=O)c(C)c9)cc8C)cc7C6=O)cc5)cc4)CC4CC3C3CCCC43)cc2)cc1` (repeat unit), the glass transition temperature stood at 262.00 °C.

For `*c1ccc2c(c1)C(=O)N(c1c(C)cc(-c3cc(C)c(N4C(=O)c5ccc(C(*)(C(F)(F)F)C(F)(F)F)cc5C4=O)c4ccccc34)c3ccccc13)C2=O` (repeat unit), the glass transition temperature was found to be 403.00 °C.

Compound `*c1ccc2c(c1)C(=O)N(c1c(C)cc(C3(c4cc(C)c(N5C(=O)c6ccc(C(*)(C(F)(F)F)C(F)(F)F)cc6C5=O)c(C)c4)c4ccccc4-c4ccccc43)cc1C)C2=O` (repeat unit) displayed a glass transition temperature of 361.00 °C.

Compound `*c1ccc2c(c1)C(=O)N(c1cc(OCCCC)cc(N3C(=O)c4ccc(C(*)(C(F)(F)F)C(F)(F)F)cc4C3=O)c1)C2=O` (repeat unit) returned a glass transition temperature of 246.00 °C.

Consider `*c1ccc2c(c1)C(=O)N(c1cc(OCCCCCCCC)cc(N3C(=O)c4ccc(C(*)(C(F)(F)F)C(F)(F)F)cc4C3=O)c1)C2=O` (repeat unit), for which the glass transition temperature amounted to 195.00 °C.

`*c1ccc2c(c1)C(=O)N(c1cc(OCCCCCCCCCCCCCCCC)cc(N3C(=O)c4ccc(C(*)(C(F)(F)F)C(F)(F)F)cc4C3=O)c1)C2=O` (repeat unit) had a glass transition temperature of 161.00 °C.

`*c1ccc2c(c1)C(=O)N(c1cc(OCCN(CC)c3ccc(/N=N/c4ccc([N+](=O)[O-])cc4)cc3)cc(N3C(=O)c4ccc(C(*)(C(F)(F)F)C(F)(F)F)cc4C3=O)c1)C2=O` (repeat unit) registered a glass transition temperature of 210.00 °C.

On to `*c1ccc2c(c1)C(=O)N(c1cc(Oc3c(C)cc(-c4cc(C)c(Oc5cc(N6C(=O)c7ccc(C(*)(C(F)(F)F)C(F)(F)F)cc7C6=O)cc(C(F)(F)F)c5)c(C)c4)cc3C)cc(C(F)(F)F)c1)C2=O` (repeat unit), for which the glass transition temperature is 264.80 °C.
